Reference: PubChem BioAssay (NCI)
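Grown in 96-well plates, cells were treated for 48 hours with each compound at five concentrations. Insufficient inhibition: endpoint recorded as highest concentration tested. TGI: concentration producing complete growth inhibition.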

What was measured:
Assay in all cases: NCI-60 cell line screen, 48 h
SNB-19 CNS = tested on: SNB-19 CNS
COLO 205 colon = tested on: COLO 205 colon
HOP-92 NSCLC = tested on: HOP-92 NSCLC
RPMI-8226 leukemia = tested on: RPMI-8226 leukemia
CAKI-1 renal = tested on: CAKI-1 renal
HCT-15 colon = tested on: HCT-15 colon
SF-295 CNS = tested on: SF-295 CNS
HCC-2998 colon = tested on: HCC-2998 colon
SK-MEL-2 melanoma = tested on: SK-MEL-2 melanoma
LOX IMVI melanoma = tested on: LOX IMVI melanoma
EKVX NSCLC = tested on: EKVX NSCLC
MCF7 breast = tested on: MCF7 breast
DU-145 prostate = tested on: DU-145 prostate
OVCAR-8 ovarian = tested on: OVCAR-8 ovarian
UACC-62 melanoma = tested on: UACC-62 melanoma
A498 renal = tested on: A498 renal
SF-539 CNS = tested on: SF-539 CNS
ACHN renal = tested on: ACHN renal
OVCAR-4 ovarian = tested on: OVCAR-4 ovarian
HCT-116 colon = tested on: HCT-116 colon

SMILES | TGI (SNB-19 CNS) [µM] | TGI (COLO 205 colon) [µM] | TGI (HOP-92 NSCLC) [µM] | TGI (RPMI-8226 leukemia) [µM] | TGI (CAKI-1 renal) [µM] | TGI (HCT-15 colon) [µM] | TGI (SF-295 CNS) [µM] | TGI (HCC-2998 colon) [µM] | TGI (SK-MEL-2 melanoma) [µM] | TGI (LOX IMVI melanoma) [µM] | TGI (EKVX NSCLC) [µM] | TGI (MCF7 breast) [µM] | TGI (DU-145 prostate) [µM] | TGI (OVCAR-8 ovarian) [µM] | TGI (UACC-62 melanoma) [µM] | TGI (A498 renal) [µM] | TGI (SF-539 CNS) [µM] | TGI (ACHN renal) [µM] | TGI (OVCAR-4 ovarian) [µM] | TGI (HCT-116 colon) [µM]
COc1cccc2c(=O)oc(-c3ccc(C(C)(C)C)cc3)nc12 | > 100 | > 100 | > 100 | > 100 | > 100 | > 100 | > 100 | 33.5 | > 100 | 53.9 | > 100 | > 100 | > 100 | > 100 | > 100 | > 100 | > 100 | > 100 | > 100 | > 100
CN(C)c1ccc(C(=N/N=C2\C(=O)Nc3ccccc32)c2ccc(N(C)C)cc2)cc1 | > 100 | 3.34 | 51.2 | 3.46 | 19.7 | 18.7 | 4.13 | 17.5 | 2.72 | 28.7 | > 54.4 | 2.72 | 17.5 | 22.4 | 33.5 | 16.8 | 3.72 | 40.8 | > 32.6 | 12.3
COc1cc(C2c3cc4c(cc3OC(NN)C2C)OCO4)cc(OC)c1OC (stereo not given) | > 100 | 13.9 | 84.8 | 67.7 | > 90.6 | > 37.4 | > 22.7 | 3.55 | > 100 | > 100 | > 100 | > 40 | > 100 | > 100 | > 100 | 0.709 | 0.6 | > 100 | > 100 | > 28.2
CC1=NN(c2cccc(Cl)c2)C2(C1=C/C=C/c1ccccc1)C(Cl)C(=O)N2c1nc2ccccc2s1 (stereo not given) | > 100 | > 100 | > 53.2 | 23.5 | > 49.8 | > 82.1 | > 100 | 86.8 | 40.1 | 57 | > 100 | > 100 | > 38.2 | 62.2 | > 100 | > 66 | > 86.1 | > 42.3 | > 100 | > 86.1
O=C1NCCN1/N=C/c1c(Cl)n(-c2ccccc2)c2ccccc12 | 56.9 | 40.5 | 49.7 | 52.8 | 51.7 | 39.9 | > 100 | 36.2 | 66.4 | 38.9 | 91.5 | 67.3 | 48.4 | 44.8 | 41.5 | 45.8 | 33.7 | 62 | 76.2 | 45.6
N=C(N)SCc1ccc2c(c1)Sc1ccccc1O2 | 30.6 | 17.8 | 26.8 | > 36.8 | 19.7 | 21.7 | 24.2 | 6.89 | 15.6 | 60.4 | 27 | 13.5 | 28.7 | 32.5 | 19.7 | 52.3 | 7.79 | 16.9 | 18.1 | 22.3
